From patent US4308269A, “Maytansinoids, pharmaceutical compositions thereof and method of use thereof” (Takeda Chemical Industries, Ltd., priority 1979, dated 1981)
≈ marks a conversion by molar mass, not a printed value.

How the values were obtained:
Tetrahymena pyriformis W = assay: Antiprotozoal activity, growth inhibition by the serial dilution method; assay type: cell-based; conditions: 28° C., 44 to 48 hours, pH 7.0
Procedure: Antioprotozoal activity of compound (I) was assayed with Tetrahymena pyriformis W as the test organism and a medium composed of 20 g tryptose-peptone (Difco Co.), 1 g yeast extract, 2 g glucose, 1000 ml distilled water, 10 ml 1 M phosphate buffer (pH 7.0) as the assay medium. The micoorganism was incubated at 28° C. for 44 to 48 hours and the growth inhibitory activity of compound (I) was assayed by the serial dilution method.

[1] = tested on: melanoma B-16 tumor cells; assay: Antitumor activity, B-16 melanoma transplanted intraperitoneally in mice (NCI protocol 1,300), life span prolongation; assay type: in vivo; conditions: intraperitoneally once daily for 9 consecutive days
Procedure: Therapeutic tests were carried out in mice according to NCI-protocol 1,300, Cancer Chemother, Reports, Part 3, 1972, Vol. 3, No. 2, in which melanoma B-16 tumor cells had been intraperitoneally transplanted, compound (I) being administered intraperitoneally once daily for 9 consecutive days.

With `COc1cc2cc(c1Cl)N(C)C(=O)CC(OC(=O)C(N)c1ccccc1)C1(C)OC1C(C)C1CC(O)(NC(=O)O1)C(OC)/C=C/C=C(\C)C2` (single isomer, unassigned) [maytansinol 3-α-aminophenylacetate] the MIC (Tetrahymena pyriformis W) was 10 to 20 µg/mL (≈ 14.3 to 28.6 µM), the “Antitumor activities B-16 (T/C%)” value ([1]; dose 100 μg/kg) was 208% and the “Antitumor activities B-16 (T/C%)” value ([1]; dose 400 μg/kg) was 208%. The “Antitumor activities B-16 (T/C%)” value ([1]; dose 800 μg/kg) was 208%.
